Laboratory results published in patent publication US20050119289A1 (priority 2002, published 2005).
Converted amounts (≈) assume the structure as drawn. “Also recorded” adds a separate entry of the source. Like-named read-outs stand apart in the source and are kept apart here.

Experiments:
A375 melanoma cells = assay: Colony formation assay; assay type: cell-based, human; settings: for colony formation: 7 days
Method: FIG. 2 illustrates colony formation assay of A375 cells. Cells were treated with different drugs and colonies were counted after 7 days. The values represent the mean±SEM of four independent experiments. D=DMSO (control); T=paclitaxel, 0.75 ng/ml; M=MRE 3008F20, 10 μM; C═CI-IB-MECA, 10 μM; TM=paclitaxel plus MRE 3008F20; TC=paclitaxel plus CI-IB-MECA treated cells. *P<0.01 TM versus T. Analysis was by ANOVA followed by Dunnett's test.;
Control plates received the same volume of DMSO alone. After 7 days of growth at 37° C. in humidified atmosphere containing 5% CO2, the cells were fixed with absolute methanol for 5′ and stained with 1/10 Giemsa/phosphate-buffered saline (PBS) staining solution for 10 minutes. Staining solution was removed and colonies of greater than 30 cells were scored as survivors. For each treatment, six individual wells were scored.

P-gp [1] = molecular target: T1, P-gp (Homo sapiens, UniProt P08183); assay: Rhodamine 123 efflux assay, A375 cells; assay type: cell-based; parameters: endogenous in cells
Method: (§1) 5×10^5 cells from each subline were loaded with 50 ng/ml of rhodamine 123 for 30 minutes at 37° C. in medium. The cells were washed and resuspended in dye-staining agent free medium for 3 hours at 37° C. to allow rhodamine 123 efflux. The cells were then washed twice and the fluorescence of intracellular rhodamine 123 were analysed with Flow cytometer (residual fluorescence FRES). The fluorescence was compared with loaded cells maintained at 4° C. to prevent drug export (maximal fluorescence FMAX). […] Cells from each subline that were not being exposed to rhodamine 123 were used as negative controls.
(§2) Rhodamine 123 (Rh 123) retention, a P-gp functional assay, was studied in all cell lines. This assay was performed by incubating cells with Rh 123 and determining Rh 123 accumulation by measuring its fluorescence. The maximum load of Rh 123 (FMAX) was quantified at the end of treatment harvesting the cells and storing them at 4° C. to prevent any active Rh123 efflux. The P-gp drug efflux was allowed incubating Rh 123-loaded cells in fresh new medium Rh 123-free for 3 hours at 37° C. After this incubation, residual fluorescence (FRES) was measured and compared to FMAx.

P-gp [2] = molecular target: T1, P-gp; assay: Rhodamine 123 efflux assay, HeL023 cells; assay type: cell-based; parameters: nearly all (100±1%) the cells expressing high level of functional P-gp; endogenous in cells; host or cells: HeL023 human erythroleukemia cells
Method: as §1, §2

A375 cells [3] = assay: Metabolic (MEK, ERK, p38MAPK) inhibitors on G2/M arrest and apoptosis, flow cytometry; assay type: cell-based, human
Method: Jurkat, HeL023 and PBMC cells were centrifuged for 10 minutes at 1000×g. […] The cells were washed with PBS and the DNA was stained with a PBS solution, containing 20 μg/ml of propidium iodide and 100 μg/ml of RNAse, at room temperature for 30 minutes. Cells were analysed by FACScan (Becton-Dickinson) and the content of DNA was evaluated by the Cell-LISYS program (Becton-Dickinson). […] Briefly, the cell cycle distribution is shown as the percentage of cells containing 2n (G1 phase), 4n (G2 and M phases), 4n>x>2n. DNA amount (S phase) judged by propidium iodide staining. The apoptotic population is the percentage of cells with DNA content lower than 2n.
U01 26 was used at 10 μM as inhibitor of MEK-1 and MEK-2 to prevent extracellular signal-regulated kinase ERK-1 and ERK-2 activation.

[4] = tested on: human colon carcinoma HT29 cell line; assay: MTT growth inhibitory assay, HT29; assay type: cell-based; settings: Homo sapiens, HT-29, HT29 cells, read-out: IC50 of anti-neoplastic agent used jointly with A3 antagonist
Source text: (§3) The cells are sub-cultured twice a week.

[5] = tested on: human lung carcinoma SKMES cell line; assay: MTT growth inhibitory assay, SKMES; assay type: cell-based; settings: SKMES cells, read-out: IC50 of anti-neoplastic agent used jointly with A3 antagonist
Source text: as §3

[6] = docetaxel administered at 100 mg/m^2; cited from earlier work
[7] = tested on: human melanoma A375 cell line
Method: (§7) For chemotherapeutic enhancement testing, the human melanoma A375, human lung carcinoma SKMES, colon carcinoma HT29, and pancreatic cancer Panc-1 cell lines were originally obtained from the ATCC (American Type Culture Collection) and have been maintained at PRC. […] The cells are cultured in a T25 Falcon Tissue Culture flask in a humidified incubator at 37° C. with 5% CO2-95% air. The cells are sub-cultured twice a week. The doubling times of A375, SKMES, HT29, and Panc-1 cultures are approximately 22, 46, 48, and 60 hr, respectively.
(§8) One of the growth inhibitory assays is the MTT assay. Cells (1000-1500 cells/well) are seeded in a 96-well micro culture plate in a total volume of 100 μl/well. After overnight incubation in a humidified incubator at 37° C. with 5% CO2-95% air, chemotherapeutic drug solutions diluted with culture medium at various concentrations are added in the amount of 100 μl to each well. The plates are placed in a humidified incubator at 37° C. with 5% CO2-95% air for 7-10 days. The plates are then centrifuged briefly and 100 μl of the growth medium is removed. Cell cultures are incubated with 50 μl of MTT [3-(4,5-dimethylthiazol-2-yl)-2,5-diphenyl-tetrazolium bromide] reagent (1 mg/ml in Dulbecco's phosphate-buffered saline) for 4 hr at 37° C. The resultant purple formazan precipitate is solubilized with 200 μl of 0.04 N HCl in isopropanol. Absorbance is measured at a wavelength of 595 nm and at a reference wavelength of 655 nm using a Bio-Rad Model 3550 Microplate Reader. Preferably, all tests are run in duplicate for each dose level.
(§9) The EZED50 computer program estimates the concentration of agent that inhibits cell growth by 50% as compared to the control cells. This is termed the IC50 and is determined by curve fitting test data using the following four logistic equation.
(§10) Inhibitory assay testing is also used to determine enhanced therapeutic effects from combining A3 receptor antagonists with other tumor inhibiting agents. The inhibitory cell growth assays are run with and without selected concentrations of A3 receptor antagonists. An enhanced therapeutic effect is present when the IC50 of the tumor inhibiting agent is lower with the A3 receptor antagonist.
(§11) Quantitatively, the enhancement factor (EF) is calculated by dividing the IC50 value of the tumor inhibiting agent for a tumor cell line by the IC50 value of the agent with A3 receptor antagonist for the same cell line: [formula]

[8] = tested on: human melanoma A375 cell line; assay: MTT growth inhibitory assay, A375
Method: as §7, §8, §9, §10, §11

[9] = tested on: human pancreatic cancer Panc-1 cell line; assay: MTT growth inhibitory assay, Panc-1; assay type: cell-based; settings: PANC-1, Panc-1 cells, read-out: IC50 of anti-neoplastic agent used jointly with A3 antagonist
Method: as §7, §8, §9, §10, §11

A375 cells [10] = assay: Flow cytometry analysis of G2/M accumulation and sub-G1 apoptosis, A375; assay type: cell-based, human
Method: (§4) A375 and NCTC2544 adherent cells were trypsinized, mixed with floating cells, washed with PBS and permeabilised in 70% (vol/vol) ethanol/PBS solution at 4° C. for at least 24 hours. Jurkat, HeL023 and PBMC cells were centrifuged for 10 minutes at 1000×g. The cell pellet was then resuspended and permeabilised in 70% (vol/vol) ethanol/PBS solution at 4° C. for at least 24 hours. The cells were washed with PBS and the DNA was stained with a PBS solution, containing 20 μg/ml of propidium iodide and 100 μg/ml of RNAse, at room temperature for 30 minutes. Cells were analysed by FACScan (Becton-Dickinson) and the content of DNA was evaluated by the Cell-LISYS program (Becton-Dickinson). Cell distribution among cell cycle phases and apoptotic cells was evaluated as previously described (Secchiero et al., 2001). Briefly, the cell cycle distribution is shown as the percentage of cells containing 2n (G1 phase), 4n (G2 and M phases), 4n>x>2n. DNA amount (S phase) judged by propidium iodide staining. The apoptotic population is the percentage of cells with DNA content lower than 2n.
Cell proliferation and apoptosis are quantified by flow cytometer analysis after propidium-iodide (PI) DNA staining. At 24 hours post-exposure, paclitaxel and vindesine induced a dose dependent cell accumulation into G2/M cell cycle phases and a parallel decrease of the G1 population.
(§5) EC50 values were obtained by analysing G2/M accumulation dose response curve. ECMAXvalues were obtained by analysing sub-G1 accumulation dose response curve. Paclitaxel values have units of ng/ml. Vindesine values have units of nM. nd: not done.

NCTC2544 cells = assay: Flow cytometry analysis of G2/M accumulation and sub-G1 apoptosis, NCTC 2544; assay type: cell-based, human; settings: paclitaxel with MRE3008F20 10 μM
Method: as §4
(§6) To verify the role of A3 receptor antagonists on paclitaxel and vindesine mediated alteration of cell proliferation and apoptosis, testing was performed with additional cell lines. […] Experimental conditions are similar to those for the A375 cell testing.
as §5

HeL023 cells = assay: Flow cytometry analysis of G2/M accumulation and sub-G1 apoptosis, HeL023; assay type: cell-based, human; settings: paclitaxel with MRE3008F20 10 μM
Method: as §4, §6, §5

Jurkat cells = assay: Flow cytometry analysis of G2/M accumulation and sub-G1 apoptosis, Jurkat; assay type: cell-based, human; settings: paclitaxel with MRE3008F20 10 μM
Method: as §4, §6, §5

[11] = A-375, read-out: IC50 of anti-neoplastic agent used jointly with A3 antagonist, A375 cells, with IL-10 0.5 μg/ml
[12] = A-375, read-out: IC50 of anti-neoplastic agent used jointly with A3 antagonist, A375 cells, with IL-10 5 μg/ml
[13] = A-375, read-out: IC50 of anti-neoplastic agent used jointly with A3 antagonist, A375 cells, with IL-10 […]
[14] = A-375, read-out: IC50 of anti-neoplastic agent used jointly with A3 antagonist, A375 cells, with IL-11 0.5 μg/ml
[15] = A-375, read-out: IC50 of anti-neoplastic agent used jointly with A3 antagonist, A375 cells, with IL-11 5 μg/ml
[16] = A-375, read-out: IC50 of anti-neoplastic agent used jointly with A3 antagonist, A375 cells, with MRE3008F20 1 μg/ml
[17] = A-375, read-out: IC50 of anti-neoplastic agent used jointly with A3 antagonist, A375 cells, with MRE3008F20 3 μg/ml
[18] = A-375, read-out: IC50 of anti-neoplastic agent used jointly with A3 antagonist, A375 cells, with MRE3008F20 10 μg/ml

T1 sequence (P08183 whole entry): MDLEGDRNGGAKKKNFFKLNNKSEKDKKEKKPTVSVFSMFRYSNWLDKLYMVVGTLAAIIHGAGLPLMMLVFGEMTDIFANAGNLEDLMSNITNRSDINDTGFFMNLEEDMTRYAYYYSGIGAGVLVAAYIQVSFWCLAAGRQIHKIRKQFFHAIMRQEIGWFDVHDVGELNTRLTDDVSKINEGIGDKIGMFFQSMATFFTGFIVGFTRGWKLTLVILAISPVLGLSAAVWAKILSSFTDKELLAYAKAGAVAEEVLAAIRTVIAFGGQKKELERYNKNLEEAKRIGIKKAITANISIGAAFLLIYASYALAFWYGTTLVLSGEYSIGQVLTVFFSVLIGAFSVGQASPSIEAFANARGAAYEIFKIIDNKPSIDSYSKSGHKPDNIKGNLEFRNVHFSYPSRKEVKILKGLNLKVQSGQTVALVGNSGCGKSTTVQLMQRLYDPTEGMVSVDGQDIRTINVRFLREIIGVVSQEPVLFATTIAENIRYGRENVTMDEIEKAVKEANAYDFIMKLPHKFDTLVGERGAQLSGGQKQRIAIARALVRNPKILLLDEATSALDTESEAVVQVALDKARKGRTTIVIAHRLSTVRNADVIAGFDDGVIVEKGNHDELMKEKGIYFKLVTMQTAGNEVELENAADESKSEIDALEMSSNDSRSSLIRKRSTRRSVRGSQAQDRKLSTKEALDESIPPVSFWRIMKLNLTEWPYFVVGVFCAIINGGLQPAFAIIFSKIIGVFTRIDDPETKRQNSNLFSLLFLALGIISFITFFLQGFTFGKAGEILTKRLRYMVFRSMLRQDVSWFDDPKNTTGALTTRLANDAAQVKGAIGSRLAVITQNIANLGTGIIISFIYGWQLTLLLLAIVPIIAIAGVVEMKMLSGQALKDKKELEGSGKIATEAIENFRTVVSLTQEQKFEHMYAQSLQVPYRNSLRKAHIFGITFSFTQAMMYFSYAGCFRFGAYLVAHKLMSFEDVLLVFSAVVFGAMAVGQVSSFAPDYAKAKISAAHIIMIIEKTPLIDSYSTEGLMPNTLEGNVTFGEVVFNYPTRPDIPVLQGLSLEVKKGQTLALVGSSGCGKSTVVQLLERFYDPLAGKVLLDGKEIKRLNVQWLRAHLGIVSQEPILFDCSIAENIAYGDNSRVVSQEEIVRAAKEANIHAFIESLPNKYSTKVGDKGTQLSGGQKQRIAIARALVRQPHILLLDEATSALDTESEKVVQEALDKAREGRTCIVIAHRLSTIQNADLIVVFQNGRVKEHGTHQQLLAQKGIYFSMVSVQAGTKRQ

Compound | IC50 ([4]; with IL-10 0.5 μg/ml) | IC50 ([4]; with IL-11 0.5 μg/ml) | IC50 ([4]; with MRE3008F20 1 μg/ml) | IC50 ([5]; with IL-10 0.5 μg/ml) | IC50 ([5]; with IL-11 0.5 μg/ml) | IC50 ([5]; with MRE3008F20 1 μg/ml) | IC50 [7] | IC50 [8, 11] | IC50 [8, 12] | IC50 [8, 13] | IC50 [8, 14] | IC50 [8, 15] | IC50 [8, 16] | IC50 [8, 17] | IC50 [8, 18] | IC50 ([9]; with IL-10 0.5 μg/ml) | IC50 ([9]; with IL-11 0.5 μg/ml) | IC50 ([9]; with MRE3008F20 1 μg/ml) | other results
CNC(=O)[C@H]1O[C@@H](n2cnc3c(NCc4cccc(I)c4)nc(Cl)nc32)[C@H](O)[C@@H]1O [CI-IB-MECA] |  |  |  |  |  |  |  |  |  |  |  |  |  |  |  |  |  |  | colony formation increased (A375 melanoma cells; CI-IB-MECA 10 μM alone vs DMSO control): about 30%; colony formation increased (A375 melanoma cells; CI-IB-MECA 10 μM combined with paclitaxel 0.75 ng/ml vs paclitaxel alone): 32%; colony formation (A375 melanoma cells; CI-IB-MECA 10 μM or MRE 3008F20 10 μM combined with paclitaxel 0.75 ng/ml): 85 % of control; colony formation (A375 melanoma cells; agent alone (CI-IB-MECA 10 μM; paclitaxel 0.75 ng/ml; MRE 3008F20 10 μM)): 130 % of control
CCCn1cc2c(nc(NC(=O)Nc3ccc(OC)cc3)n3nc(-c4ccco4)nc23)n1 [MRE3008F20, 5-[[(4-Methoxyphenyl)amino]carbonyl]amino-8-propyl-2-(2-furyl)-pyrazolo[4,3-e]1,2,4-triazolo[1,5-c]pyrimidine] |  |  |  |  |  |  |  |  |  |  |  |  |  |  |  |  |  |  | P-gp mediated Rh123 transport (in words) (P-gp [1]; MRE3008F20 10 μM): completely blockade of P-gp mediated Rh123 transport; inhibition of P-gp activity (in words) (P-gp [2]; Rh123 efflux): near total P-gp inhibition; also recorded: strong inhibitors of P-gp activity; % of Rh123 negative cells (P-gp [2]; antagonist 10 μM, cells expressing P-gp activity): 0.5 ± 0.3%
C[S+]([O-])c1ccc(-c2nc(-c3ccncc3)c(-c3ccc(F)cc3)[nH]2)cc1 (stereo not drawn) [SB203580] |  |  |  |  |  |  |  |  |  |  |  |  |  |  |  |  |  |  | G2/M accumulation rate of inhibitor plus paclitaxel or vindesine respect to paclitaxel or vindesine alone (in words) (A375 cells [3]): did not alter
N#CC(=C(/N)Sc1ccccc1N)/C(C#N)=C(\N)Sc1ccccc1N [U0126] |  |  |  |  |  |  |  |  |  |  |  |  |  |  |  |  |  |  | effect on MRE 3008F20 blockade of P-gp (in words) (P-gp [1]; U0126 30 μM for 30 minutes, then MRE3008F20 10 μM): failed to prevent; G2/M accumulation rate of inhibitor plus paclitaxel or vindesine respect to paclitaxel or vindesine alone (in words) (A375 cells [3]; A375, PD98059 20 μM, U0126 30 μM, SB203580 1 μM): did not alter
CC(=O)O[C@@]12CO[C@@H]1C[C@H](O)[C@@]1(C)C(=O)[C@H](O)C3=C(C)[C@@H](OC(=O)[C@H](O)[C@@H](NC(=O)OC(C)(C)C)c4ccccc4)C[C@@](O)([C@@H](OC(=O)c4ccccc4)[C@H]21)C3(C)C [docetaxel] | 0.0033 ng/mL (≈ 0.00408 nM) | 0.0028 ng/mL (≈ 0.00347 nM) | 0.0012 ng/mL (≈ 0.00149 nM) | 0.17 ng/mL (≈ 0.21 nM) | 0.25 ng/mL (≈ 0.309 nM) | 0.13 ng/mL (≈ 0.161 nM) | 0.005 ng/mL (≈ 0.00619 nM) | 0.0025 ng/mL (≈ 0.00309 nM) | 0.0072 ng/mL (≈ 0.00891 nM) | 0.0023 ng/mL (≈ 0.00285 nM) | 0.0087 ng/mL (≈ 0.0108 nM) | 0.0071 ng/mL (≈ 0.00879 nM) | 0.0006 ng/mL (≈ 0.000743 nM) | 0.0055 ng/mL (≈ 0.00681 nM) | 0.0072 ng/mL (≈ 0.00891 nM) | 0.47 ng/mL (≈ 0.582 nM) | 0.5 ng/mL (≈ 0.619 nM) | 0.38 ng/mL (≈ 0.47 nM) | acute hypersensitivity reaction, patients [6]: 13%; severe hypersensitivity reaction, patients [6]: 1.2%
CC(=O)O[C@H]1C(=O)[C@@]2(C)[C@H]([C@H](OC(=O)c3ccccc3)[C@]3(O)C[C@H](OC(=O)[C@H](O)[C@@H](NC(=O)c4ccccc4)c4ccccc4)C(C)=C1C3(C)C)[C@]1(OC(C)=O)CO[C@@H]1C[C@@H]2O [paclitaxel] | 1 ng/mL (≈ 1.17 nM) | 0.99 ng/mL (≈ 1.16 nM) | 0.85 ng/mL (≈ 0.995 nM) | 1.2 ng/mL (≈ 1.41 nM) | 0.78 ng/mL (≈ 0.913 nM) | 0.8 ng/mL (≈ 0.937 nM) | 0.67 ng/mL (≈ 0.785 nM) | 1.2 ng/mL (≈ 1.41 nM) | 0.5 ng/mL (≈ 0.586 nM) | 0.61 ng/mL (≈ 0.714 nM) | 1.4 ng/mL (≈ 1.64 nM) | 0.4 ng/mL (≈ 0.468 nM) | 0.59 ng/mL (≈ 0.691 nM) | 0.66 ng/mL (≈ 0.773 nM) | 0.54 ng/mL (≈ 0.632 nM) | 1.7 ng/mL (≈ 1.99 nM) | 1.6 ng/mL (≈ 1.87 nM) | 1.5 ng/mL (≈ 1.76 nM) | percentage of apoptotic cells, maximum value (A375 cells [10]; A375, paclitaxel at 5 ng/ml, range on different experiments): 35 to 53%; ECMAX, concentration exerting the maximal apoptosis (sub-G1) (A375 cells [10]; A375, paclitaxel with MRE3008F20 10 μM): 3.04 ± 0.32 ng/mL; ECMAX, concentration exerting the maximal apoptosis (sub-G1) (A375 cells [10]; A375, paclitaxel, DMSO (no antagonist)): 6.00 ± 0.63 ng/mL; EC50, G2/M accumulation (A375 cells [10]; A375, paclitaxel, DMSO (no antagonist), 24 hours): 16.60 ± 2.00 ng/mL (≈ 19.4 nM); EC50 (A375 cells [10]; Homo sapiens, A-375): 8.6 ± 0.81 ng/mL (≈ 10.1 nM); IC50 ([8]; A-375, read-out: IC50 of paclitaxel plus MRE3008F20, IL-10, and IL-11, A375, with 10 μg/ml of MRE3008F20 or 5 μg/ml of IL-10 or IL-11): 0.4 to 0.54 ng/mL; EC50 (NCTC2544 cells; Homo sapiens, NCTC-2544, NCTC 2544): 2.41 ± 0.3 ng/mL (≈ 2.82 nM); ECMAX (sub-G1 accumulation) (NCTC2544 cells; NCTC 2544): 2.55 ± 0.24 ng/mL; EC50 (HeL023 cells; Homo sapiens): 4.1 ± 0.4 ng/mL (≈ 4.8 nM); ECMAX (sub-G1 accumulation) (HeL023 cells): 3.19 ± 0.30 ng/mL; EC50 (Jurkat cells; Homo sapiens): 2.52 ± 0.3 ng/mL (≈ 2.95 nM); ECMAX (sub-G1 accumulation) (Jurkat cells): 2.29 ± 0.31 ng/mL
